Source: PMC10608878, “Synthesis and Antiproliferative Activity of 2,6-Disubstituted Imidazo[4,5-b]pyridines Prepared by Suzuki Cross Coupling” (Molecules, 2023)
Read-outs that look alike come from different tables or passages of the source.

Columns and labels:
[1] = system: Capan-1 pancreatic adenocarcinoma cells; assay: Antiproliferative activity, Capan-1 cells; assay type: cell-based, human; conditions: Homo sapiens, CAPAN-1, 72 h, Capan-1, 72 h incubation
Procedure: (§1) All prepared imidazo[4,5-b]pyridines were tested for their antiproliferative activity against the following cancer cell lines: LN-229—glioblastoma, Capan-1—pancreatic adenocarcinoma, HCT-116—colorectal carcinoma, NCI-H460—lung carcinoma, DND-41—acute lymphoblastic leukemia, HL-60—acute myeloid leukemia, K-562—chronic myeloid leukemia, and Z-138—non-Hodgkin lymphoma cancer cells. An overview of the results is presented in Table 2 as IC50 values (50% inhibitory concentration). An established antitumor drug, etoposide (ETO), was included for comparison.
(§2) For proliferation assays, the human cancer cell lines used in this manuscript, namely Capan-1, HCT-116, NCI-H460, LN-229, HL-60, K-562, and Z-138, were acquired from the American Type Culture Collection (ATCC, Manassas, VA, USA), while the DND-41 cell line was purchased from the Deutsche Sammlung von Mikroorganismen und Zellkulturen (DSMZ Leibniz-Institut, Braunschweig, Germany). Culture media were purchased from Gibco (Gibco Life Technologies, Merelbeke, Belgium) and supplemented with 10% fetal bovine serum (HyClone, Cytiva, Marlborough, MA, USA). Adherent cell lines LN-229, HCT-116, NCI-H460, and Capan-1 cells were seeded in 384-well tissue culture plates (Greiner, Kremsmünster, Austria) at a density between 500 and 1500 cells per well (500 cells per well for Capan-1, 1000 cells per well for LN-229 and HCT-116, and 1500 cells per well for NCI-H460). The cells were treated with seven different concentrations of the test compounds in a 5-fold dilution series ranging from 100 to 0.006 µM after overnight incubation. Suspension cell lines HL-60, K-562, Z-138, and DND-41 were seeded at densities ranging from 2500 to 5500 cells per well (2500 cells per well for HL-60, K-562, and Z-138, and 5500 cells per well for DND-41) in 384-well culture plates containing the test compounds at the same concentration points. All conditions were incubated for 72 h before measuring the cell viability by the CellTiter 96® AQueous Non-Radioactive Cell Proliferation Assay (Promega, Madison, WA, USA) according to the manufacturer’s instructions. After 3 h, absorbance of all conditions was measured at 490 nm using a SpectraMax Plus 384 (Molecular Devices, San Jose, CA, USA), and the OD values were used to calculate the 50% inhibitory concentration (IC50). Compounds were tested in two independent experiments.

[2] = system: HCT-116 colorectal carcinoma cells; assay: Antiproliferative activity, HCT-116 cells; assay type: cell-based, human; conditions: Homo sapiens, HCT-116, 72 h, HCT-116, 72 h incubation
Procedure: as §1, §2

[3] = system: LN-229 glioblastoma cells; assay: Antiproliferative activity, LN-229 cells; assay type: cell-based, human; conditions: Homo sapiens, LN-229, 72 h, LN-229, 72 h incubation
Procedure: as §1, §2

[4] = system: NCI-H460 lung carcinoma cells; assay: Antiproliferative activity, NCI-H460 cells; assay type: cell-based, human; conditions: Homo sapiens, NCI-H460, 72 h, NCI-H460, 72 h incubation
Procedure: as §1, §2

[5] = system: DND-41 acute lymphoblastic leukemia cells; assay: Antiproliferative activity, DND-41 cells; assay type: cell-based, human; conditions: Homo sapiens, DND41, 72 h, DND-41, 72 h incubation
Procedure: as §1, §2

[6] = system: HL-60 acute myeloid leukemia cells; assay: Antiproliferative activity, HL-60 cells; assay type: cell-based, human; conditions: Homo sapiens, HL-60, 72 h, HL-60, 72 h incubation
Procedure: as §1, §2

[7] = system: K-562 chronic myeloid leukemia cells; assay: Antiproliferative activity, K-562 cells; assay type: cell-based, human; conditions: Homo sapiens, K562, 72 h, K-562, 72 h incubation
Procedure: as §1, §2

[8] = system: Z-138 non-Hodgkin lymphoma cells; assay: Antiproliferative activity, Z-138 cells; assay type: cell-based, human; conditions: Homo sapiens, Z-138, 72 h, Z-138, 72 h incubation
Procedure: as §1, §2

[9] = system: human cancer cell lines; assay: Antiproliferative activity, panel of human cancer cell lines; assay type: cell-based
Procedure: as §1, §2

[10] = system: normal peripheral blood mononuclear cells (PBMC); assay: Toxicity in normal peripheral blood mononuclear cells; assay type: cell-based
Excerpt: Figure 6 Toxicity of compounds 13 and 19 in normal cells.

[11] = system: host cell lines; conditions: host cell lines of the antiviral assays
[12] = system: human coronavirus HCoV-229E; assay: organism not typed; assay type: cell-based, human coronavirus 229E; conditions: HEL 299 host cells; read-out: Antiviral Activity (EC50) HCoV 229E HEL 299
[13] = system: human coronavirus HCoV-OC43; assay: Antiviral CPE assay, HCoV-OC43 in HEL 299; assay type: cell-based; conditions: HEL 299 host cells
[14] = system: human coronavirus HCoV-NL63; assay: Antiviral CPE assay, HCoV-NL63 in Hep3B; assay type: cell-based; conditions: Hep3B host cells
[15] = system: influenza A/H1N1 (A/Ned/378/05); assay: Antiviral CPE assay, influenza A/H1N1 in MDCK; assay type: cell-based; conditions: Influenza A virus, MDCK host cells
[16] = system: influenza A/H3N2 (A/HK/7/87); assay: Antiviral CPE assay, influenza A/H3N2 in MDCK; assay type: cell-based; conditions: Influenza A virus, MDCK host cells
[17] = system: influenza B (B/Ned/537/05); assay: Antiviral CPE assay, influenza B in MDCK; assay type: cell-based; conditions: Influenza B virus; MDCK host cells
[18] = system: respiratory syncytial virus (RSV) A; assay: Antiviral CPE assay, RSV in Hep-2; assay type: cell-based; conditions: human respiratory syncytial virus; Hep-2 host cells
[19] = system: herpes simplex virus-1 (HSV-1 KOS); assay: Antiviral CPE assay, HSV-1 in HEL 299; assay type: cell-based; conditions: HEL 299 host cells
[20] = system: yellow fever virus (YFV); assay: microbe, parasite or virus in culture; assay type: cell-based
[21] = system: Zika virus (ZIKV); assay: Antiviral CPE assay, ZIKV in VeroE6; assay type: cell-based; conditions: VeroE6 host cells
[22] = system: Sindbis virus (SINDV); assay: Antiviral CPE assay, SINDV in VeroE6; assay type: cell-based; conditions: VeroE6 host cells
[23] = system: Semliki Forest virus (SFV); assay: Antiviral CPE assay, SFV in VeroE6; assay type: cell-based; conditions: VeroE6 host cells
[24] = in vitro; conditions: human
[25] = in vitro; conditions: human; remark: listed apart in the source
[26] = in vitro; conditions: dog
[27] = in vitro; conditions: human; remark: listed apart in the source
[28] = in vitro; conditions: African green monkey
[29] = system: HEp-2 cells; assay: Cell cycle progression, HEp-2 cells; assay type: cell-based, human
Excerpt: (§3) Lastly, the effects of lead compound 19 on the cell cycle progression of three cancer cell lines, namely HEp-2, NCI-H460, and LN-229, were explored.
(§4) Figure 7 The effects of lead compound 19 on cell cycle progression of NCI-H460 (left), LN-229 (middle), and Hep-2 (right) cells.

[30] = system: NCI-H460 cells; assay: Cell cycle progression, NCI-H460 cells; assay type: cell-based, human
Excerpt: as §3, §4

[31] = system: LN-229 cells; assay: Cell cycle progression, LN-229 cells; assay type: cell-based, human
Excerpt: as §3, §4

[32] = system: HEL 299 cells; conditions: read-out: Cytotoxicity (CC50) HEL 299; uninfected HEL 299 cells
[33] = system: VeroE6 cells; conditions: read-out: Cytotoxicity (CC50) Vero E6; uninfected Vero E6 cells
[34] = most/majority of the tested cancer cell lines, read-out: IC50 range against most of the tested cell lines

Compound | IC50 [1] | IC50 [2] | IC50 [3] | IC50 [4] | IC50 [5] | IC50 [6] | IC50 [7] | IC50 [8] | IC50 [9, 34] | Effect on viability of PBMC ([10]; 10 µM) | Effect on viability of PBMC ([10]; 100 µM (highest dose tested)) | Cytotoxicity on host cell lines [11] | EC50 [12] | EC50 ([13]; Betacoronavirus 1, OC43) | EC50 [14] | EC50 [18] | EC50 ([19]; Human alphaherpesvirus 1) | CC50 [24] | CC50 [25] | CC50 [27] | also measured
Oc1ccc(-c2cnc3[nH]c(-c4ccccc4)nc3c2)cc1 [Compound 13, 4-(2-phenyl-3H-imidazo [4,5-b]pyridin-6-yl)phenol] | 1.5 µM | 3.94 µM | 4.1 µM | 4.25 µM | 4.25 µM | 1.65 µM | 3.42 µM | 1.87 µM | 1.45 to 4.25 µM | little to no effect | negatively impacted the viability | cytotoxicity was observed on all host cell lines, with the exception of the non-cancerous HEL 229 cells |  |  |  |  |  |  |  |  | IC50 ([9]; Capan-1, HL-60 and Z-138 cell lines, read-out: IC50 range, particularly strong inhibition): 1.5 to 1.87 µM
N#Cc1ccc(-c2cnc3[nH]c(-c4ccccc4)nc3c2)cc1 [Compound 15, 4-(2-phenyl-3H-imidazo [4,5-b]pyridin-6-yl)benzonitrile] | 10.8 µM | > 100 µM | 79.2 µM | > 100 µM | > 100 µM | 37.2 µM | > 100 µM | 34.4 µM |  |  |  |  | 31.3 µM | > 50 µM | > 50 µM | > 50 µM | > 50 µM | > 50 µM | > 50 µM | > 50 µM | EC50 [15]: 33.5 µM; EC50 [16]: 39.5 µM; EC50 [17]: 34.5 µM; EC50 ([20]; Yellow fever virus, Vero C1008, read-out: Antiviral Activity (EC50) YFV VeroE6): > 50 µM; EC50 ([21]; Zika virus, Vero C1008): > 50 µM; EC50 ([22]; Sindbis virus, Vero C1008): > 50 µM; EC50 ([23]; Semliki Forest virus, Vero C1008): > 50 µM; CC50 [26]: > 50 µM; CC50 [28]: > 50 µM
Cn1c(-c2ccccc2)nc2cc(-c3ccc(O)cc3)cnc21 [Compound 19, 4-(3-methyl-2-phenyl-3H-imidazo [4,5-b]pyridin-6-yl)phenol] | 1.9 µM | 2.32 µM | 1.77 µM | 2.83 µM | 1.57 µM | 3.3 µM | 1.5 µM | 1.45 µM | 1.45 to 4.25 µM | little to no effect | negatively impacted the viability | cytotoxicity was observed on all host cell lines, with the exception of the non-cancerous HEL 229 cells |  |  |  |  |  |  |  |  | IC50 ([9]; Capan-1, LN-229, DND-41, K-562 and Z-138 cell lines, read-out: IC50 range, lowest inhibitory concentrations): 1.45 to 1.9 µM; Effect on cell cycle progression [29]: strong accumulation of cells in the G2/M phase; Effect on cell cycle progression [30]: strong accumulation of cells in the G2/M phase; Effect on cell cycle progression [31]: strong accumulation of cells in the G2/M phase
Cn1c(-c2ccccc2)nc2cc(-c3ccc(C(N)=O)cc3)cnc21 [Compound 22, 4-(3-methyl-2-phenyl-3H-imidazo[4,5-b]pyridin-6-yl)benzamide] | > 100 µM | > 100 µM | > 100 µM | > 100 µM | > 100 µM | 70.9 µM | > 100 µM | 58.1 µM |  |  |  |  |  |  |  |  |  |  |  |  | melting point: > 300 °C
CCOC(=O)[C@H]1O[C@@H]1C(=O)N[C@@H](CC(C)C)C(=O)NCCC(C)C [Compound E64d] |  |  |  |  |  |  |  |  |  |  |  |  | 2 µM |  |  |  |  |  |  |  | EC50 [13]: 3.9 µM; EC50 [19]: > 100 µM; EC50 ([20]; VeroE6 host cells, read-out: Antiviral Activity (EC50) YFV VeroE6): > 100 µM; EC50 [21]: 27.8 µM; EC50 [22]: > 100 µM; EC50 [23]: > 100 µM; CC50 [32]: > 100 µM; CC50 [33]: > 100 µM
CCC(CC)COC(=O)[C@H](C)N[P@](=O)(OC[C@H]1O[C@@](C#N)(c2ccc3c(N)ncnn23)[C@H](O)[C@@H]1O)Oc1ccccc1 [Remdesivir, remdesivir] |  |  |  |  |  |  |  |  |  |  |  |  | 0.2 µM | 0.06 µM | 0.2 µM | 0.006 µM | > 10 µM | > 10 µM | > 10 µM | > 10 µM | 
